Among the data in PubChem BioAssay AID624491 (Broad Institute, 2012) are AC26 values, retold here.

Molecules are shown by their SMILES.

The subject of the experiment is D54 ERlucT glycosylation luciferase reporter, luminescence, 24 h. Description: blockers of NLG process in reporter cells – D54 ERlucT cells, luminescence, cherry-picks, dose response (AID 624491).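 Note: signal gain reflects blocked N-linked glycosylation of a luciferase reporter; actives raise luciferase signal so AC26 marks activators of the reporter.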
Take `CCN(CC)CCn1c2ccccc2c2nc3ccc([N+](=O)[O-])cc3cc21`: the AC26 is 7740 nM. For `COc1ccc2sc3cccc(NCCN(C)C)c3c(=O)c2c1` the value was 4530 nM.

For the molecule `CCc1ccc(N2CC(C(=O)Nc3ccccc3N3CCCC3)CC2=O)cc1` (stereo not given), the AC26 was 5370 nM. The figure for `OCC1OC(n2cnc3c(SCc4ccccc4)ncnc32)C(O)C1O` (stereo not given) is 1050 nM; for `Cc1cccc(NC(=O)Nc2cccc(C#N)c2)n1` it is 4060 nM; for `Cc1ccc2c(CC(=O)NCc3ccco3)coc2c1C` it is 7380 nM. The figure for `CC12CC[C@H]3[C@@H](CCC4(O)C[C@H](O)CCC34/C=N/NC(=O)c3ccccc3O)C1(O)CCC2C1=CC(=O)OC1` (stereo not given in full) is 6060 nM. The figure for `COc1c(Br)cc(Br)cc1/C=N/NC(=O)c1cccnc1` is 10200 nM; for `O=C(C=Cc1ccccn1)c1ccccc1O` it is 1250 nM. Consider `COc1cccc(Oc2ccc(C(F)(F)F)cc2NC(=O)CN2C(=O)NC3(CCCC3)C2=O)c1`, for which the AC26 was 4850 nM. For `Cc1ccc(-c2cnc(C3CC3)o2)cc1S(=O)(=O)Nc1ccccc1` the value was 9070 nM; for `O=C(NCCc1ccc(F)cc1)c1coc(=O)c(Br)c1`, 413 nM; for `Cc1cccc2c(C(=O)N3CCN(c4ccccc4)CC3)cc(-c3ccncc3)nc12`, 198 nM. For `COc1ccc(-n2c(C)cc(C(=O)CCl)c2C)cc1` the value was 3980 nM; for `Cc1ccc2oc(C(=O)NCc3ncc(C)[nH]3)c(C)c2c1`, 6750 nM; for `CS(=O)(=O)Nc1cccc(NC(=O)C2Cc3c(-c4ccccc4)ccnc3O2)c1` (stereo not given), 2360 nM.

Turning to `Cc1c(Cl)cccc1N=Cc1ccc([N+](=O)[O-])s1`, the AC26 is 1870 nM. The figure for `CCCn1c(CN2CCN(C(=O)OCC)CC2)nc2cc(NC(=O)CC)ccc21` is 9150 nM; for `CCOC(=O)c1c(NC(=O)c2cc3n(n2)C(C(F)(F)F)CC(c2cccs2)N3)sc(C)c1C` (stereo not given) it is 5140 nM. The figure for `CCOc1ccc(NC(=S)NC(=O)/C=C/c2ccc(C)cc2)c([N+](=O)[O-])c1` is 3930 nM; for `Cc1ccc2nc(-c3ccccc3)cc(C(=O)N3CC(C)OC(C)C3)c2c1` (stereo not given) it is 2450 nM; for `O=C(COC(=O)Cn1cnc2ccccc21)Nc1cccc2c1C(=O)c1ccccc1C2=O` it is 2840 nM.

Take `O=C(NCCCN1CCOCC1)c1cc(-c2cccs2)on1`: the AC26 is 3670 nM. Regarding `CCN(CC)CCOc1c(Br)ccc2c1sc1nc3n(c(=O)c12)CCC3`, the AC26 is 3070 nM. With `COc1ccc(OC)c(N(CC(=O)Nc2cccc3ccccc23)S(C)(=O)=O)c1`, the AC26 is 3100 nM.

With `CCN1C(=O)c2cccc3c(S(=O)(=O)N4CCC(C)CC4)ccc1c23`, the AC26 is 1720 nM.

`CC1(C(=O)NCCc2ccccc2)Cc2c(-c3ccc4c(c3)OCO4)ccnc2O1` (stereo not given): the AC26 is 3160 nM. For `Cc1ccc(C(=O)c2coc3c2C(=O)C(=O)c2ccccc2-3)cc1` the value was 4630 nM; for `O=C(N/N=C\c1ccc(CNS(=O)(=O)c2ccc(Cl)cc2)o1)C(=O)Nc1ccc(Oc2ccccc2)cc1`, 4890 nM; for `Cc1cc(NS(=O)(=O)c2ccc(NC(=O)COc3c(C)cc(Br)cc3C)cc2)no1`, 550 nM. The figure for `COc1ccc2c(c1)C(=O)N1[C@H]3c4cc(Cl)ccc4OC[C@@H]3[C@H](c3ccccc3)[C@]1(C)C(=O)N2` is 1010 nM; for `COc1cc(C(=O)OCCCN2CCCN(CCCOC(=O)c3cc(OC)c(OC)c(OC)c3)CC2)cc(OC)c1OC` it is 1550 nM. For `COc1ccc(NC(=O)C(=O)c2cn(CC(=O)N3CCCC3)c3ccccc23)cc1` the value was 105 nM; for `CC(CCc1ccccc1)NC(=O)c1ccc(NC(=O)c2ccccc2)cc1` (stereo not given), 4540 nM.

Regarding `Cc1ccc(NCCN(C)C)c2c(=O)c3cc(O)ccc3sc12`, the AC26 is 84.5 nM. For `COC(=O)Nc1nc2ccc(-c3n[nH]c(=O)c4ccccc34)cc2[nH]1` the value was 3350 nM; for `Cc1c(C(=O)C(=O)N2c3ccc(F)cc3CCC2C)c2ccccc2n1C` (stereo not given), 5780 nM; for `COC(=O)COc1cccc2c(=O)n(CC(=O)NCc3ccccc3)ccc12`, 1250 nM. The figure for `CC(=O)Nc1ccc(CNc2ncnc3ccc(-c4c(C)noc4C)cc23)cc1` is 290 nM; for `COc1ccccc1NS(=O)(=O)c1ccc(-c2cc(C)no2)s1` it is 5830 nM. The figure for `Cc1ccc(S(=O)(=O)Cc2ccc(C(=O)N3CCN(c4cccc(C)c4C)CC3)o2)cc1` is 3450 nM; for `Cc1cccc(N2CCN(C(=O)c3cc(S(=O)(=O)N4CCCC4)cn3C)CC2)c1C` it is 2050 nM; for `NC(=O)CC(NC(=O)Cc1ccc(Br)cc1)c1ccc(NC2CC3CCC2C3)c([N+](=O)[O-])c1` (stereo not given) it is 32.6 nM. Consider `COc1ccc2oc(-c3ccccc3[N+](=O)[O-])cc(=O)c2c1`, for which the AC26 was 568 nM. The figure for `CC(=O)Nc1cccc(NC(=O)c2ccccc2OCc2ccccc2)c1` is 1350 nM; for `CCCCN(CC)CCCNC(=O)c1cc2c(=O)n(C)c3ccccc3c2n1C` it is 3310 nM. For `Cc1ccccc1NC(=O)Cn1nnc(C(=O)NCc2ccco2)c1N` the value was 1770 nM; for `CC(=O)Nc1cccc(-c2ccnc3c2CC(C)(C(=O)NCC2CC2)O3)c1` (stereo not given), 5110 nM; for `Cc1[nH][nH]c(=O)c1C(c1ccc(-c2cccc(Cl)c2)o1)c1c(C)[nH][nH]c1=O`, less than 1.2 nM.

Regarding `c1ccc2c(c1)oc1c(-c3ccc4nccn4c3)cccc12`, the AC26 was 8270 nM.

Consider `COc1ccc2c(c1)[C@H]1[C@H](CO2)[C@H](c2ccccc2)[C@]2(C)C(=O)Nc3cc(F)c(F)cc3C(=O)N12`, for which the AC26 is 544 nM.

For the molecule `COc1ccc(NC(=O)C2Cc3c(-c4cccc(C(C)=O)c4)ccnc3O2)cn1` (stereo not given), the AC26 is 203 nM. The figure for `COc1ccc(/C=N/NC(=O)c2cccc(NC(=O)c3ccccc3Cl)c2)cc1` is 5130 nM; for `Fc1ccc(CSc2ccc3nnc(-c4cccnc4)n3n2)cc1` it is 403 nM; for `COc1ccccc1C1CC(=O)Nc2cc3c(cc21)OCCO3` (stereo not given) it is 10500 nM. For `O=C(/C=C/c1ccc([N+](=O)[O-])cc1)/C=C/c1ccco1` the value was 1140 nM; for `Cn1ncc2c(O/N=C(\N)c3ccc(C(F)(F)F)cc3)ncnc21`, 445 nM; for `CCN(CC)S(=O)(=O)c1cccc(NC(=O)CN2C(=O)NC3(CCC(C)CC3)C2=O)c1` (stereo not given), 876 nM. For `Cc1ccc(N2C(=O)Nc3ccccc3C2(O)C(=O)N2CCN(c3ccccn3)CC2)cc1C` (stereo not given) the value was 330 nM; for `NC(=O)/C=C/C(=O)Nc1ccc(Cl)cc1`, 15100 nM.

With `Cn1cccc1/C=C1\C(=O)NC(=O)N(Cc2ccccc2Cl)C1=O`, the AC26 is 2490 nM.

`CC(Nc1nc(-c2ccccc2)nc2ccccc12)c1ccccc1` (stereo not given): the AC26 was 80.3 nM.

On to `O=C(Cn1ncc(Cl)c(Cl)c1=O)N1CCOCC1`, for which the AC26 was 1220 nM. For the molecule `Cn1cccc1/C=C1\SC(=Nc2cccc(O)c2)NC1=O`, the AC26 was 2850 nM.

For the molecule `CCOC(=O)c1[nH]c(C)c(C(=O)N2CCc3ccccc32)c1C`, the AC26 is 133 nM.

With `COc1ccc(CCn2c(=N)c(S(=O)(=O)c3ccc(C)cc3)cc3c(=O)n4ccccc4nc32)cc1`, the AC26 was 988 nM. The figure for `Cc1cc2nnc(SCC(=O)NCc3cccs3)n2c2ccccc12` is 1660 nM; for `CCOC(=O)/C(=C/c1c(C)n(C)c2ccc([N+](=O)[O-])cc12)C(C)=O` it is 4230 nM. For the molecule `COc1ccc(OC(=O)N2C/C(=C/c3ccccc3)C(=O)/C(=C\c3ccccc3)C2)cc1`, the AC26 is 299 nM. The figure for `COc1ccc(-c2cc(C(F)F)n3ncc(C(=O)N4CCc5ccccc54)c3n2)cc1` is 2500 nM; for `COc1ccc(-c2nn(C)c(=O)c3ccccc23)cc1NS(C)(=O)=O` it is 4620 nM.

On to `CC(C)COc1ccc(C(=O)OCC(=O)NCc2cccs2)cc1`, for which the AC26 was 1750 nM.

Turning to `Cn1cccc1/C=C1\C(=O)NC(=O)N(Cc2ccccc2)C1=O`, the AC26 is 267 nM. The figure for `Cc1ccc(-n2nc(C)c(/C=N/NC(=O)c3cccs3)c2Cl)cc1` is 4230 nM; for `CC(Nc1nc(-c2ccccc2O)nc2ccccc12)c1ccccc1` (stereo not given) it is 65.6 nM; for `Cc1cc(C)cc(N2C(=O)NC(=O)/C(=C\C=C\c3ccco3)C2=O)c1` it is 1130 nM. For `Cc1ccccc1NS(=O)(=O)c1ccc2c3c(cccc13)C(=O)N2C` the value was 3400 nM. The figure for `c1ccc(Cc2nnc(Sc3ccccc3)c3ccccc23)cc1` is 5170 nM; for `O=[N+]([O-])c1ccc(Sc2cc[n+]([O-])c3ccccc23)c([N+](=O)[O-])c1` it is 5960 nM.

Turning to `CC(=O)c1sc(Nc2cccc3ccccc23)nc1C`, the AC26 was 6110 nM. The figure for `CC(C)c1ccc(NC(=O)CN2C(=O)NC3(CCCCCCC3)C2=O)cc1` is 1210 nM; for `CC(=O)c1ccc(Oc2cc(C)nc(-n3nc(C)cc3C)n2)cc1` it is 726 nM; for `COc1ccc(CCn2c(O)c(C=NCc3ccc4c(c3)OCO4)c(=O)[nH]c2=O)cc1OC` it is 3430 nM.

Take `c1ccc(CNc2ncnc3c2cnn3-c2ccccc2)cc1`: the AC26 was 8130 nM.

On to `Cc1ccc(-n2nc(C)c(NC(=O)CCl)c2C)cc1`, for which the AC26 is 2210 nM. For `COc1cc(-n2c(N)c(C(=O)NCc3ccco3)c3nc4ccccc4nc32)cc(OC)c1OC` the value was 2090 nM; for `C=C1c2nc3ccccc3n2C=C(c2ccc(C)cc2)N1c1ccccc1`, 9580 nM; for `COc1ccc(CCn2c(=N)c(C(=O)NCCN3CCOCC3)cc3c(=O)n4cccc(C)c4nc32)cc1OC`, 739 nM.

With `COc1ccc(C(=O)CSc2nn3c(=O)c(C(C)(C)C)nnc3s2)cc1`, the AC26 was 3870 nM.

As to `Cn1c(=O)n(C)c2cc(NS(=O)(=O)c3ccc(F)cc3)ccc21`, the AC26 is 5290 nM.

For `COc1cc(C(=O)N/N=C(\C)c2ccc3c(c2)OCO3)cc(OC)c1OC`, the AC26 was 1260 nM.

Consider `COc1ccc2[nH]c(C(=O)N/N=C/c3ccccc3OC)cc2c1`, for which the AC26 is 1010 nM. For `COc1cc(C(=O)N/N=C/c2ccc3c(c2)c2ccccc2n3C)ccc1O`, the AC26 was 4070 nM. For `COCCCNC(=O)c1sc2ncn(CC(=O)Nc3ccc(C)c(Cl)c3)c(=O)c2c1C` the value was 1380 nM; for `Cc1onc(C(=O)Nc2cccc(C(F)(F)F)c2)c1[N+](=O)[O-]`, 2720 nM.
